# From US20090264310A1, “SCREENING METHOD FOR THE ISOLATION OF CENTROSOMAL CLUSTER-INHIBITORS AS ANTI-CANCER AGENTS” (priority 2006, published 2009)
# Assays:
# [1] = system: N115 mouse neuroblastoma cells; assay: Inhibition of centrosome coalescence and microtubule network in interphase cells (immunofluorescence); type: cell-based; settings: N115, 50 μM griseofulvin, 24 hours
# Protocol: (§1) All cell lines (BJ fibroblasts (available from ATCC), SCC114 (18), HeLa (ATCC), MCF7 (ATCC), N115 and U2OS (ATCC) were cultured in Dulbecco's modified Eagle's Medium (DMEM, PAA Laboratories, Pasching, Germany) supplemented with 10% FCS (PAA), 20 U/ml penicillin and 20 μg/ml streptomycin (Biochrom, Berlin, Germany) at 37° C., 5% CO2. SCC114-D1 cells stably expressing GFP-α-tubulin were generated by transfection (Fugene 6, Roche Diagnostics, Mannheim, Germany) of the transgene in pEGFP-C1 (Clontech, Heidelberg, Germany) and maintained under selective pressure by addition of geniticin (Gibco, Invitrogen, Karlsruhe, Germany) into complete medium at a concentration of […]. When indicated, griseofulvin (Sigma, Deisenhofen, Germany) was added to culture medium at several concentrations (0-100 μM), and incubation was continued for 24-72 h. Griseofulvin was dissolved in DMSO (Sigma); the final DMSO concentration in all experiments was 0.1%.
# Cells grown on glass coverslips were fixed in −20° C. methanol/acetone (1:1) for 7 min. After blocking non-specific sites with 10% goat serum (Sigma)/PBS for 5 min, the cells were incubated with primary antibodies for 1 h. […] Immunostained cells were examined using a Zeiss Axiovert 200 M fluorescence microscope (Göttingen, Germany) and images were processed with Photoshop (Adobe, München, Germany) software. […]
# U2OS cells = assay: Induction of multipolar mitotic spindles (immunofluorescence); type: cell-based, human; settings: 100 μM griseofulvin, 24 hours
# Protocol: as §1
# (§2) Cells grown on glass coverslips were fixed in −20° C. methanol/acetone (1:1) for 7 min. After blocking non-specific sites with 10% goat serum (Sigma)/PBS for 5 min, the cells were incubated with primary antibodies for 1 h. Unlabelled antibodies were used at following dilutions: mouse monoclonal antibody to Eg5, 1:500 (Transduction Laboratories, Lexington, Ky.); mouse monoclonal antibody to γ-tubulin (GTU-88) at 1:300, rabbit polyclonal antibody to γ-tubulin at 1:100, and mouse monoclonal antibody to α-tubulin at 1:500 (Sigma, Deisenhofen, Germany); rabbit anti-phospho-histone H3, 1:500 (Upstate Biotechnology, Lake Placid, N.Y.); mouse monoclonal antibody to dynein, 1:50 (Chemicon International, Hampshire, UK); mouse monoclonal antibody to NuMA, 1:50 (Calbiochem, Darmstadt, Germany). Coverslips were then washed three times with PBS and incubated with secondary antibodies for 25 min before adding DAPI to a final concentration of 0.1 μg/ml (Sigma) to the antibody dilution for additional 5 min. The following fluorchrome-conjugated secondary antibodies were used: rabbit Alexa 488, 1:1000 (Molecular Probes, Invitrogen, Karlsruhe, Germany) and mouse Cy3, 1:400 (Jackson ImmunoResearch Laboratories, West Grove, PN). Coverslips were washed three times with PBS, rinsed shortly with water and post-fixed in absolute ethanol for 1 min. Airdryed Coverslips were embedded in Vectashield (Vector Laboratories, Burlingame, Calif.) or Fluoromount G (Southern Biotech, Birmingham, Ala.). Immunostained cells were examined using a Zeiss Axiovert 200 M fluorescence microscope (Göttingen, Germany) and images were processed with Photoshop (Adobe, München, Germany) software.
# SCC114 cells [2] = assay: as above; type: cell-based, human; settings: SCC114, 20 μM griseofulvin, 24 hours
# Protocol: as §1, §2
# MCF7 cells = assay: as above; type: cell-based, human; settings: 24 hours
# Protocol: as §1, §2
# HeLa cells [3] = assay: as above; type: cell-based, human; settings: 100 μM griseofulvin, 24 hours
# Protocol: as §1, §2
# BJ fibroblasts [4] = assay: as above; type: cell-based, human; settings: 24 hours
# Protocol: as §1, §2
# [5] = Colorimetric MTT cytotoxicity assay; type: cell-based; settings: human, SCC114 cells, SCC114, 0-100 μM, read-out: IC50 cytotoxicity / half-maximal inhibition of cell growth
# Protocol: (§3) The cytotoxicity assay was performed as previously described (53). Briefly, MTT (Thiazolyl Blue Tetrazolium Blue; Sigma) was dissolved in PBS at 5 mg/ml and filtered. 0.3×10^5 cells were plated in 96 well plates (Nunc) 24 h before addition of griseofulvin. Cells were then treated with different concentrations of griseofulvin for 22 h. Stock MTT solution (10 μl per 100 μl medium) was added to all wells, and plates were incubated additional 2 h at 37° C. Medium was discarded, 200 μl DMSO was added to each well and incubated for 20 minutes at 37° C. When all crystals were dissolved, the plates were read on a microtiterplate […] reader (Tecan, Crailsheim, Germany), using a test wavelength of 650 nm and a reference wavelength of 750 nm.
# BJ fibroblasts [6] = assay: Colorimetric MTT cytotoxicity assay; type: cell-based; settings: Homo sapiens, Fibroblast, highest concentration 100 μM, read-out: growth inhibition
# Protocol: as §3
# SCC114 cells [7] = assay: G2/M cell cycle arrest, propidium iodide flow cytometry; type: cell-based, human; settings: SCC114, 20 μM griseofulvin, 24 hours
# Protocol: (§4) Cells were plated in 6-well plates (Greiner Bio-One, Kremsmuenster; Austria), treated 24 h later with different concentrations of griseofulvin and incubated for 24 h. Both attached and unattached cells were harvested and washed with PBS. For cell cycle, analysis cells were fixed in −20° C. methanol (70%) for at least 45 min. Cells were then washed with PBS and incubated in propidiumodide buffer containing 0.01 mg/ml propidiumiodide (Molecular Probes) and 0.25 mg/ml RNase A (Roth, Karlsruhe, Germany) for 30 min. For the histone H3-assay, cells were fixed in 70% ethanol, incubated with 0.25% Triton X-100/PBS for 15 min on ice, and stained with rabbit antibody to phospho-histone H3 (1:500; Upstate Biotechnology) for 2 h at room temperature, followed by 1 h of incubation with Alexa 488 conjugated anti-rabbit IgG (1:1000; Molecular Probes). DNA was counterstained with propidiumiodide buffer (see above) for 30 minutes at 37° C. Cells were analyzed with a FACScan flow cytometer (Becton Dickinson, Heidelberg, Germany) using CellQuest Software.
# HeLa cells [8] = assay: as above; type: cell-based, human; settings: 20 μM griseofulvin, 24 hours
# Protocol: as §4
# BJ fibroblasts [9] = assay: as above; type: cell-based, human; settings: 20 μM griseofulvin, 24 hours
# Protocol: as §4
# SCC114 cells [10] = assay: Dynein and NuMA localization on mitotic spindles (immunofluorescence); type: cell-based, human; settings: SCC114, 100 μM griseofulvin, 24 hours
# Protocol: as §2, with “The following fluorchrome-conjugated secondary antibodies were used: rabbit Alexa 488, 1:1000 (Molecular Probes, Invitrogen, Karlsruhe, Germany) and mouse Cy3, 1:400 (Jackson ImmunoResearch Laboratories, West Grove, PN). Coverslips were washed three times with PBS, rinsed shortly with water and post-fixed in absolute ethanol for 1 min. Airdryed Coverslips were embedded in Vectashield (Vector Laboratories, Burlingame, Calif.) or Fluoromount G (Southern Biotech, Birmingham, Ala.).” left out, “software. […]” for “software.”
# SCC114 cells [11] = assay: Mitotic cells by phospho-histone H3 two-parameter flow cytometry; type: cell-based, human; settings: SCC114, 35 μM griseofulvin, 24 hours (29.1% prior to treatment)
# Protocol: as §4
# BJ fibroblasts [12] = assay: as above; type: cell-based, human; settings: 35 μM griseofulvin, 24 hours (4.1% prior to treatment)
# Protocol: as §4
compound,measurement,setting,value
COC1=CC(=O)C[C@@H](C)[C@]12Oc1c(Cl)c(OC)cc(OC)c1C2=O [griseofulvin],percentage of interphase cells harbouring only short and convoluted microtubules,[1],98%
same,percentage of interphase cells lacking clustering of centrioles into a single aggregate,[1],68%
same,percentage of mitoses multipolar,U2OS cells,more than 85%
same,percentage of multipolar spindles,SCC114 cells [2],53%
same,percentage of multipolar spindles,"MCF7 cells; MCF7, 20 μM griseofulvin",20%
same,percentage of mitoses multipolar,"MCF7 cells; MCF7, 100 μM griseofulvin",more than 85%
same,percentage of mitoses multipolar,HeLa cells [3],more than 85%
same,percentage of metaphases multipolar,"BJ fibroblasts [4]; BJ fibroblasts, 20 μM griseofulvin",3%
same,percentage of mitotic cells harbouring bipolar spindles,"BJ fibroblasts [4]; normal diploid fibroblasts, 100 μM griseofulvin",87%
same,IC50 at 22 h,[5],35 µM
same,inhibition at 100 µM,BJ fibroblasts [6],25 ± 1%
same,percentage of cells arrested in G2/M phase,SCC114 cells [7],91.2±3.9%
same,percentage of cells arrested in G2/M phase,HeLa cells [8],65.6±7.6%
same,percentage of cells in G2/M,BJ fibroblasts [9],19.1±1.4%
same,percentage of multipolar spindles labelled with antibody to NuMA,SCC114 cells [10],99.5±0.5%
same,percentage of multipolar spindles labelled with antibody to dynein,SCC114 cells [10],99±1%
same,percentage of cells in mitosis,SCC114 cells [11],56.4%
same,percentage of cells in mitosis,BJ fibroblasts [12],5.5%
